Results published in ChEMBL document CHEMBL1201862, “PubChem BioAssay data set” (2004).
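Where inhibition never reached the appropriate level, the endpoint shown equals the highest concentration tested. Otherwise, values were interpolated linearly from a five-concentration, 48-hour dose response in 96-well plates. Here, GI50 denotes the concentration required for 50% inhibition of growth.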 The source made the active and inactive calls. Rule as the data show it: active = GI50 up to about 1.1 µM and inactive = higher. Where a SMILES comes first, the peptide text is derived from it. The star is where a group is joined. Boc = CC(C)(C)OC(=O)*

What was measured:
Assay in all cases: inhibition of tumour cell growth, NCI panel, 48 h
BT-549 = test system: BT-549
MDA-MB-231 = test system: MDA-MB-231
T47D = test system: T47D

| SMILES | GI50 (BT-549) | GI50 (MDA-MB-231) | GI50 (T47D) |
| --- | --- | --- | --- |
| N#C/N=[N+](\[O-])c1ccc(C(=O)O)cc1 | 16.4 µM (inactive) | – | – |
| CC(C(=O)NCCNC(=O)CCC(=O)N(C)O)C(=O)NCCNC(=O)CCC(=O)N(C)O | – | > 100 µM (inactive) | > 100 µM (inactive) |
| S=C(Cc1ccc2c(c1)Sc1ccccc1O2)N1CCOCC1 | – | 58.7 µM (inactive) | 38.7 µM (inactive) |
| COP(C)(=O)/C(Cc1ccccc1)=N\O (stereo not given) | – | > 100 µM (inactive) | > 100 µM (inactive) |
| O=C1/C(=C/c2ccc(Oc3ccccc3)cc2)N=C(c2ccccc2)N1c1ccc(S(=O)(=O)Nc2nccs2)cc1 | – | 28.2 µM (inactive) | 12.8 µM (inactive) |
| COc1ccc(/C=N/n2c(C)n[nH]c2=O)c(OC)c1 | > 100 µM (inactive) | > 100 µM (inactive) | > 100 µM (inactive) |
| CCN(CC)CCCNc1c2c(Cl)cc(Cl)cc2nc2nc(O)nc(C)c12 | 84.5 µM (inactive) | 18.5 µM (inactive) | > 100 µM (inactive) |
| C=C1CC(C)(COc2ccc3c(C)c(C)c(=O)oc3c2C)OC1=O (stereo not given) | 1.5 µM (inactive) | 2.52 µM (inactive) | 1.28 µM (inactive) |
| O=C1c2ccccc2C(=O)N1CC1(C(=O)O)NCCS1(=O)=O (stereo not given) | > 100 µM (inactive) | > 100 µM (inactive) | > 100 µM (inactive) |
| CC(=O)[C@@]1(c2ccccc2)CC2(CCN(C)CC2)O[C@H]1C | > 100 µM (inactive) | > 100 µM (inactive) | > 100 µM (inactive) |
| O=CNCNCCO | > 100 µM (inactive) | – | > 100 µM (inactive) |
| C/C(NC(=O)c1ccccc1)=C(/C(=O)c1ccccc1)[C@@H]1OC(C)(C)O[C@@H]1[C@H]1COC(C)(C)O1 | 25.8 µM (inactive) | 23.7 µM (inactive) | – |
| CC(C)Oc1cccc(N2C(n3ccnc3)=Nc3ccncc3S2(=O)=O)c1 | 15.5 µM (inactive) | – | 13.1 µM (inactive) |
| N#Cc1sc2c(c1OC(=O)c1ccc(Cl)cc1)c(=O)n(-c1ccccc1)c(=S)n2-c1ccccc1 | – | 32.4 µM (inactive) | 24.4 µM (inactive) |
| CN(Cc1cnc2nc(N)nc(N)c2n1)c1ccc(C(=O)N[C@@H](CCS(=O)(=O)O)C(=O)O)cc1 | 0.404 µM (active) | > 100 µM (inactive) | > 100 µM (inactive) |
| O=C1C(Cl)=C(N2CCSCC2)C(=O)c2c(O)ccc(O)c21 | – | 0.308 µM (active) | 0.662 µM (active) |
| CN1CN(c2ccccc2)C2(CCN(CCCC(=O)c3cccs3)CC2)C1=O | – | 50.9 µM (inactive) | 29 µM (inactive) |
| CCOC(=O)c1cn2c(n1)sc1cc([N+](=O)[O-])ccc12 | 74.6 µM (inactive) | 38.5 µM (inactive) | > 100 µM (inactive) |
| C(=C\Nc1ccc(Oc2ccccc2)cc1)/C=N/c1ccc(Oc2ccccc2)cc1 | 15.9 µM (inactive) | 17.1 µM (inactive) | – |
| CC(C)(CN1CCCCC1)C(=O)/C=C/c1c(Cl)cccc1Cl | 1.86 µM (inactive) | 0.789 µM (active) | 0.421 µM (active) |
| O=C(O)C1(Cc2ccc3c(c2)CCC3)Cc2cc3c(cc2C1)CCC3 | > 100 µM (inactive) | – | – |
| COc1cc(C)cc(OC)c1/C=C/C(=O)O | > 100 µM (inactive) | > 100 µM (inactive) | > 100 µM (inactive) |
| CCN(CCO)C(=O)C1(c2ccccc2)CCCCC1 | – | > 10 µM (inactive) | > 10 µM (inactive) |
| CCCCCCc1cc2cc(C(=O)Nc3nc(C45CC6CC(CC(C6)C4)C5)cs3)c(=O)oc2cc1O | 23.8 µM (inactive) | 7.33 µM (inactive) | 5.68 µM (inactive) |
| BrP(NC1CCCCCC1)(c1ccccc1)(c1ccccc1)c1ccccc1 | 3.26 µM (inactive) | 3.56 µM (inactive) | 1.93 µM (inactive) |
| CCCOC1OC(CS(=O)(=O)O)C(O)C(O)C1O (stereo not given) | > 100 µM (inactive) | – | > 100 µM (inactive) |
| COC(=O)[C@H](Cc1ccc(O)cc1)NC(=O)[C@H](Cc1ccc(O)cc1)NC(=O)OC(C)(C)C (Boc-Tyr-Tyr-OMe) | > 100 µM (inactive) | 60 µM (inactive) | – |
| Oc1cc(O)c2c(c1)O[C@H](c1ccc(O)c(O)c1)[C@@H](O)C2 [CIANIDANOL] | – | > 100 µM (inactive) | > 100 µM (inactive) |
